According to patent US12162855B2, “Tetrahydroquinolino derivatives for the treatment of metastatic and chemoresistant cancers” (THE TRUSTEES OF PRINCETON UNIVERSITY, priority 2018, dated 2024):

Legend:
Aldh1a1 = target: T1, Aldh1a1 (Homo sapiens, UniProt P00352); assay: ALDEFLUOR assay in MCF7 cells transduced with human Aldh1a1; format: cell-based; details: concentrations below 10 μM
T1 construct: expressed in transfected cells; host or cells: MCF7, lentiviral pLex vector
T1 sequence (P00352 1-501): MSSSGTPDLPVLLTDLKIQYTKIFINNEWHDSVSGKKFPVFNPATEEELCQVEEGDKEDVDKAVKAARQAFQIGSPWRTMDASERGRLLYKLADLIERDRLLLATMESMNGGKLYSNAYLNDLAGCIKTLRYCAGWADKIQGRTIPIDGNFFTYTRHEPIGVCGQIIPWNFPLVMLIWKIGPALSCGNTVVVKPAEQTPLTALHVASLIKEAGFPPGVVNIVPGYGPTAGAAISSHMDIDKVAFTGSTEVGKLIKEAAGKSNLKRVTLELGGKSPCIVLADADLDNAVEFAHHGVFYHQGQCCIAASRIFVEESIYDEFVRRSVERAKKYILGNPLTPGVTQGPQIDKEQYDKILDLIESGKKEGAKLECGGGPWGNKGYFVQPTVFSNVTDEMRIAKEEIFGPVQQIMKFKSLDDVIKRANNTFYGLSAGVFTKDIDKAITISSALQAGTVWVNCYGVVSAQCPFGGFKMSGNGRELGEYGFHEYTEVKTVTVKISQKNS
Method: The coding sequences of Aldh1a1, Aldh1a2, Aldh1a3 and Aldh3a1 were cloned from cDNA made from pooled human reference RNA samples. Cloned sequences flanked by Age1 and Xho1 restriction sites were inserted into the pLex lentiviral plasmid. Clones were sequenced and compared against NCBI expressed sequence tags (ESTs) for accuracy. […]. Viruses were collected and filtered at 0.45 μm, then cells were transduced using polybrene (8 μg/mL) for 12 hours, followed by culture with 1 μg/mL puromycin for the duration of experiments. All viral transduction and selection was performed on a cell population-wide basis.
(§1) Cells were counted, centrifuged and resuspended at 1,000,000 cells/mL in ALDEFLUOR™ buffer (Stemcell Technologies). ALDEFLUOR™ substrate (Stemcell Technologies, 1:200) and test compound or 1 mM DEAB were added to cell suspension and incubated at 37° C. for 45 minutes with vortexing every 15 minutes. Cells were centrifuged and resuspended in ALDEFLUOR™ buffer with DAPI at 5 μg/mL. Samples were analyzed with the BD LSR2 flow cytometry platform. Gating was performed using DEAB as a negative control.

bone marrow cells = assay: Ex vivo analysis of ALDH activity in murine lymphocytes (ALDEFLUOR); format: cell-based, mouse
Method: Bone marrow cells were collected from 12-week old […] mice via tibia and femur flush with PBS and were passed through a 100-μm cell sieve. Thymocytes and spleenocytes were isolated from corresponding tissues and were isolated by physical disruption against a 100 μm cell sieve. Cells were washed via centrifugation/resuspension and then suspended at 10^7 cells/mL. The ALDEFLUOR™ assay with or without MBE1 was then conducted on these cells as described except with the addition of either […] (Biolegend #100308), anti-CD11c (BD Pharmigen #561119), anti-CD45 (eBioscience 30-F11), or anti-CD317 (Biolegend 129c1) during the incubation period at 1:200.
Similar results (not shown) were obtained in other populations tested, including CD45-positive and CD3e-positive (CD45+CD3e+) and CD11c-positive and CD317-positive (CD11+CD317+).

ALDH1a3 = target: T2, ALDH1a3 (Homo sapiens, UniProt P47895); assay: ALDEFLUOR assay in 293T cells transiently transfected with human Aldh1a3; format: cell-based; details: 293T cells transfected with human Aldh1a3
T2 construct: lentiviral vectors containing either the vector backbone or full-length human Aldh1a3; expressed in transfected cells; host or cells: SUM159-M1a (A1) and SUM159 (A7) breast cancer cells, lentiviral pLex vector, puromycin selection
T2 sequence (P47895 1-512): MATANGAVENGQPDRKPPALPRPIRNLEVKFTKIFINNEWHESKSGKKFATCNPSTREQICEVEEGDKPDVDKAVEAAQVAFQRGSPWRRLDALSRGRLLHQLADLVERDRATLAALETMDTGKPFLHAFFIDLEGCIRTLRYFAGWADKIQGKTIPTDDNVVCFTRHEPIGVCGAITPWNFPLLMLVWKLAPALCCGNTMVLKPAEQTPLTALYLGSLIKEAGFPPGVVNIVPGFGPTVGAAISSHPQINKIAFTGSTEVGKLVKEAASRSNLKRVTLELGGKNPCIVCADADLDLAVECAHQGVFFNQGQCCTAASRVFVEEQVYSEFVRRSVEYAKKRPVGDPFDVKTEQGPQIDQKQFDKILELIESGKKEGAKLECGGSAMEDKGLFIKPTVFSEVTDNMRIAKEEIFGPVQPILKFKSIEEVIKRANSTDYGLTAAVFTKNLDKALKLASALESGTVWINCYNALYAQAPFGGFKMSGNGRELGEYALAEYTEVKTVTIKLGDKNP
Method: The coding sequences of Aldh1a1, Aldh1a2, Aldh1a3 and Aldh3a1 were cloned from cDNA made from pooled human reference RNA samples. Cloned sequences flanked by Age1 and Xho1 restriction sites were inserted into the pLex lentiviral plasmid. Clones were sequenced and compared against NCBI expressed sequence tags (ESTs) for accuracy. Viral production of each enzyme was performed by transfection into the 293T packaging cell line using PEI along with PsPax2 and VSVG packaging vectors. Viruses were collected and filtered at 0.45 μm, then cells were transduced using polybrene (8 μg/mL) for 12 hours, followed by culture with 1 μg/mL puromycin for the duration of experiments. All viral transduction and selection was performed on a cell population-wide basis.
as §1

MDA-MB-468 cells = assay: Primary tumor xenograft, MDA-MB-468 cells in mammary fat pad; format: in vivo; details: 12 days
Method: In yet another xenograft experiment, mice were injected with MDA-MB-468 cells via mammary fat pad, and were randomized following injection. Mice were treated with MBE1.5 (25 mg/kg daily, n=6) or vehicle (n=12), and paclitaxel (12.5 mg/kg every other day) for 12 days. Primary tumor measurements were taken by caliper between each treatment group.

[1] = test system: Sum-159-M1a-Aldh1a3 cells; assay: Lung metastasis xenograft, Sum-159-M1a-Aldh1a3 cells by tail-vein injection; format: in vivo, mouse; details: 25 mg/kg daily with paclitaxel 12.5 mg/kg every other day, 12 days
Method: In another xenograft experiment, mice were injected with Sum-159-M1a-Aldh1a3 cells via tail-vein injection, and were randomized following injection. Mice were treated with MBE1.5 (25 mg/kg daily) or vehicle, and paclitaxel (12.5 mg/kg every other day) for twelve days. Lung metastasis progression was tracked by intravital bioluminescence.

Compound	inhibition of Aldh1a1 activity (FIG. 2A) (Aldh1a1)	effect on ALDEFLUOR activity of CD11c-positive bone marrow cells (FIG. 4B) (bone marrow cells; murine bone marrow)	effect on ALDEFLUOR activity of CD45-positive bone marrow cells (FIG. 4A) (bone marrow cells; murine bone marrow)	effect on ALDEFLUOR activity of all populations tested (incl. CD45+CD3e+, CD11+CD317+) (bone marrow cells; murine cells)	inhibition of Aldh1a3 activity (FIG. 2B) (ALDH1a3)	complete tumor elimination (MDA-MB-468 cells; 25 mg/kg daily (n=6) with paclitaxel 12.5 mg/kg every other day)	gross toxicity, body mass (FIG. 15A) (MDA-MB-468 cells; 25 mg/kg daily with paclitaxel 12.5 mg/kg every other day)	tumor volume (FIG. 15B) (MDA-MB-468 cells; 25 mg/kg daily with paclitaxel 12.5 mg/kg every other day, MDA-MB-468 primary tumors)	mouse survival, Kaplan-Meier (FIG. 16B) [1]
CCc1cnccc1C(=O)Nc1cc2c(cc1F)NC(=O)CC2 [MBE1, 3-ethyl-N-(7-fluoro-2-oxo-1,2,3,4-tetrahydroquinolin-6-yl)isonicotinamide]	does not inhibit								
CCc1ccccc1C(=O)Nc1cc2c(cc1F)NC(=O)CC2 [MBE1.5, 2-ethyl-N-(7-fluoro-2-oxo-1,2,3,4-tetrahydroquinolin-6-yl)benzamide]		not affected	not affected	not affected	effective at inhibiting Aldh1a3 activity	tumors of two mice in the MBE1.5 treatment group were completely eliminated	no gross toxicity	caused regression of primary breast tumors	extended survival in mice with late-stage established breast cancer lung metastasis
